25 compounds from patent US8372863B2, “Tetrahydro-1H-pyrrolo fused pyridones” (Merck Sharp & Dohme Corp., priority 2008, dated 2013) can be followed below.

Counter-ions that a name gives are not always drawn.

Chain of PHD2 (Q9GZT9 whole entry): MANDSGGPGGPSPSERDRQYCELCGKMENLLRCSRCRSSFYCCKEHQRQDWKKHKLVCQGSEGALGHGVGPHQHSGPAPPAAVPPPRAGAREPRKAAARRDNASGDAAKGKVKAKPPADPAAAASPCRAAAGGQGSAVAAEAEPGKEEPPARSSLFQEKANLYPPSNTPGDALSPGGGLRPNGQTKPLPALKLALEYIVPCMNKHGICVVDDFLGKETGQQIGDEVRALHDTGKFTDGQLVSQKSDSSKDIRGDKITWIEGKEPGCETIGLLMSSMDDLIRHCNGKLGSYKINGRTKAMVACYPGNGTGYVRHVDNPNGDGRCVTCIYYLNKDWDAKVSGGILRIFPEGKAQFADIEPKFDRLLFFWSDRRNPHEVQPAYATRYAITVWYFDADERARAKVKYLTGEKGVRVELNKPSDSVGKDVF

The target of the test is PHD2 (Homo sapiens, UniProt Q9GZT9). In words: PHD2 / HIF-1α peptide hydroxylation assay with time resolved fluorescence readout (PHD2 binding activity). The class given is biochemical. Conditions: FLAG-tagged full length PHD2; 0.2 μM 2-oxoglutarate, 0.5 μM HIF-1α peptide; read-out: PHD2 Activity (PHD2 binding activity expressed as IC50). The protocol:
After a 30 min preincubation at room temperature, the enzymatic reactions were initiated by the addition of 4 μL of substrates (final concentrations of 0.2 μM 2-oxoglutarate and 0.5 μM HIF-1α peptide biotinyl-DLDLEMLAPYIPMDDDFQL). After 2 hr at room temperature, the reactions were terminated and signals were developed by the addition of a 25 μL quench/detection mix to a final concentration of 1 mM ortho-phenanthroline, 0.1 mM EDTA, 0.5 nM anti-(His)6 LANCE reagent (Perkin-Elmer Life Sciences), 100 nM AF647-labeled streptavidin (Invitrogen), and 2 μg/ml (His)6-VHL complex (S. Tan(2001) Protein Expr. Purif 21, 224-234). The ratio of time resolved fluorescence signals at 665 and 620 nm was determined, and percent inhibition was calculated relative to an uninhibited control sample run in parallel.
With `N#Cc1ccccc1Cn1c2c(c(O)c(C(=O)NCC(=O)O)c1=O)CN(C(=O)c1cscn1)C2` [Example 56, N-{[1-(2-cyanobenzyl)-4-hydroxy-2-oxo-6-(1,3-thiazol-4-ylcarbonyl)-2,5,6,7-tetrahydro-1H-pyrrolo[3,4-b]pyridin-3-yl]carbonyl}glycine], the half-inhibitory concentration (IC50) is below 10 nM.

With `CN(C)S(=O)(=O)N1Cc2c(O)c(C(=O)NCC(=O)O)c(=O)n(Cc3ccc(C(F)(F)F)cc3)c2C1` [Example 12, N-({6-[(dimethylamino)sulfonyl]-4-hydroxy-2-oxo-1-[4-(trifluoromethyl)benzyl]-2,5,6,7-tetrahydro-1H-pyrrolo[3,4-b]pyridin-3-yl}carbonyl)glycine], the IC50 is below 10 nM.

As for `C=CCCC(=O)N1Cc2c(O)c(C(=O)NCC(=O)O)c(=O)n(Cc3nc4ccccc4s3)c2C1` [Example 3, N-{[1-(1,3-benzothiazol-2-ylmethyl)-4-hydroxy-2-oxo-6-pent-4-enoyl-2,5,6,7-tetrahydro-1H-pyrrolo[3,4-b]pyridin-3-yl]carbonyl}glycine], the IC50 was below 10 nM. Turning to `O=C(O)CNC(=O)c1c(O)c2c(n(Cc3ccc(C(F)(F)F)cc3)c1=O)CN(C(=O)c1cccnc1)C2` [Example 25, N-({4-hydroxy-2-oxo-6-(pyridin-3-ylcarbonyl)-1-[4-(trifluoromethyl)benzyl]-2,5,6,7-tetrahydro-1H-pyrrolo[3,4-b]pyridin-3-yl}carbonyl)glycine], the IC50 was below 10 nM. On to `O=C(O)CNC(=O)c1c(O)c2c(n(Cc3ccc(C(F)(F)F)cc3)c1=O)CN(C(=O)c1ccccc1Cl)C2` [Example 18, N-({6-(2-chlorobenzoyl)-4-hydroxy-2-oxo-1-[4-(trifluoromethyl)benzyl]-2,5,6,7-tetrahydro-1H-pyrrolo[3,4-b]pyridin-3-yl}carbonyl)glycine], for which the IC50 was below 10 nM.

With `O=C(O)CNC(=O)c1c(O)c2c(n(Cc3ccc(C(F)(F)F)cc3)c1=O)CN(Cc1ccc(Cl)cc1)C2` [Example 39, N-({6-(4-chlorobenzyl)-4-hydroxy-2-oxo-1-[4-(trifluoromethyl)benzyl]-2,5,6,7-tetrahydro-1H-pyrrolo[3,4-b]pyridin-6-ium-3-yl}carbonyl)glycine trifluoroacetate], the IC50 is below 10 nM. Turning to `O=C(O)CNC(=O)c1c(O)c2c(n(Cc3cccc(-c4ccccc4Cl)c3)c1=O)CN(C(=O)c1cscn1)C2` [Example 47, N-{[1-[(2′-chlorobiphenyl-3-yl)methyl]-4-hydroxy-2-oxo-6-(1,3-thiazol-4-ylcarbonyl)-2,5,6,7-tetrahydro-1H-pyrrolo[3,4-b]pyridin-3-yl]carbonyl}glycine], the IC50 is below 10 nM. As for `O=C(O)CNC(=O)c1c(O)c2c(n(Cc3ccc(C(F)(F)F)cc3)c1=O)CN(Cc1cccc(Cl)c1)C2` [Example 40, N-({6-(3-chlorobenzyl)-4-hydroxy-2-oxo-1-[4-(trifluoromethyl)benzyl]-2,5,6,7-tetrahydro-1H-pyrrolo[3,4-b]pyridin-6-ium-3-yl}carbonyl)glycine chloride], the IC50 was 10 to 100 nM. Take `O=C(O)CNC(=O)c1c(O)c2c(n(Cc3ccc(C(F)(F)F)cc3)c1=O)CN(C(=O)c1nccs1)C2` [Example 34, N-({4-hydroxy-2-oxo-6-(1,3-thiazol-2-ylcarbonyl)-1-[4-(trifluoromethyl)benzyl]-2,5,6,7-tetrahydro-1H-pyrrolo[3,4-b]pyridin-3-yl}carbonyl)glycine]: the IC50 was below 10 nM. As for `CC(C)(C)C(=O)N1Cc2c(O)c(C(=O)NCC(=O)O)c(=O)n(Cc3ccc(C(F)(F)F)cc3)c2C1` [Example 15, N-({6-(2,2-dimethylpropanoyl)-4-hydroxy-2-oxo-1-[4-(trifluoromethyl)benzyl]-2,5,6,7-tetrahydro-1H-pyrrolo[3,4-b]pyridin-3-yl}carbonyl)glycine], the IC50 is below 10 nM. In the case of `O=C(O)CNC(=O)c1c(O)c2c(n(Cc3ccc(C(F)(F)F)cc3)c1=O)CN(C(=O)c1ccc(Cl)cc1)C2` [Example 21, N-({6-(4-chlorobenzoyl)-4-hydroxy-2-oxo-1-[4-(trifluoromethyl)benzyl]-2,5,6,7-tetrahydro-1H-pyrrolo[3,4-b]pyridin-3-yl}carbonyl)glycine], the IC50 was below 10 nM. Regarding `O=C(O)CNC(=O)c1c(O)c2c(n(Cc3ccc(C(F)(F)F)cc3)c1=O)CNC2` [Example 7, N-({4-hydroxy-2-oxo-1-[4-(trifluoromethyl)benzyl]-2,5,6,7-tetrahydro-1H-pyrrolo[3,4-b]pyridin-6-ium-3-yl}carbonyl)glycine trifluoroacetate], the IC50 was below 10 nM. For the compound `C=CCCC(=O)N1Cc2c(O)c(C(=O)NCC(=O)O)c(=O)n(Cc3ccc(C(F)(F)F)cc3)c2C1` [Example 1, N-({4-hydroxy-2-oxo-6-pent-4-enoyl-1-[4-(trifluoromethyl)benzyl]-2,5,6,7-tetrahydro-1H-pyrrolo[3,4-b]pyridin-3-yl}carbonyl)glycine], the IC50 was below 10 nM. For `O=C(O)CNC(=O)c1c(O)c2c(n(Cc3cccc(-c4cccc(Cl)c4)c3)c1=O)CN(C(=O)c1cscn1)C2` [Example 50, N-{[1-[(3′-chlorobiphenyl-3-yl)methyl]-4-hydroxy-2-oxo-6-(1,3-thiazol-4-ylcarbonyl)-2,5,6,7-tetrahydro-1H-pyrrolo[3,4-b]pyridin-3-yl]carbonyl}glycine] the value was below 10 nM; for `Cc1cc(C(=O)N2Cc3c(O)c(C(=O)NCC(=O)O)c(=O)n(Cc4ccc(C(F)(F)F)cc4)c3C2)n(C)n1` [Example 23, N-({6-[(1,3-dimethyl-1H-pyrazol-5-yl)carbonyl]-4-hydroxy-2-oxo-1-[4-(trifluoromethyl)benzyl]-2,5,6,7-tetrahydro-1H-pyrrolo[3,4-b]pyridin-3-yl}carbonyl)glycine], below 10 nM; for `C=CCCC(=O)N1Cc2c(O)c(C(=O)NCC(=O)O)c(=O)n(Cc3cccc(Br)c3)c2C1` [Example 4, N-{[1-(3-bromobenzyl)-4-hydroxy-2-oxo-6-pent-4-enoyl-2,5,6,7-tetrahydro-1H-pyrrolo[3,4-b]pyridin-3-yl]carbonyl}glycine], below 10 nM. For `COCC(=O)N1Cc2c(O)c(C(=O)NCC(=O)O)c(=O)n(Cc3ccc(C(F)(F)F)cc3)c2C1` [Example 14, N-({4-hydroxy-6-(methoxyacetyl)-2-oxo-1-[4-(trifluoromethyl)benzyl]-2,5,6,7-tetrahydro-1H-pyrrolo[3,4-b]pyridin-3-yl}carbonyl)glycine] the value was below 10 nM. Turning to `CCOC(=O)N1Cc2c(O)c(C(=O)NCC(=O)O)c(=O)n(Cc3ccc(-c4ccccc4)cc3)c2C1` [Example 22, N-{[1-(biphenyl-4-ylmethyl)-6-(ethoxycarbonyl)-4-hydroxy-2-oxo-2,5,6,7-tetrahydro-1H-pyrrolo[3,4-b]pyridin-3-yl]carbonyl}glycine], the IC50 was below 10 nM. For `O=C(O)CNC(=O)c1c(O)c2c(n(Cc3ccc(C(F)(F)F)cc3)c1=O)CN(C(=O)c1cscn1)C2` [Example 29, N-({4-hydroxy-2-oxo-6-(1,3-thiazol-4-ylcarbonyl)-1-[4-(trifluoromethyl)benzyl]-2,5,6,7-tetrahydro-1H-pyrrolo[3,4-b]pyridin-3-yl}carbonyl)glycine] the value was below 10 nM; for `CC(=O)N1Cc2c(O)c(C(=O)NCC(=O)O)c(=O)n(Cc3ccc(C(F)(F)F)cc3)c2C1` [Example 9, N-({6-acetyl-4-hydroxy-2-oxo-1-[4-(trifluoromethyl)benzyl]-2,5,6,7-tetrahydro-1H-pyrrolo[3,4-b]pyridin-3-yl}carbonyl)glycine], below 10 nM. For `O=C(O)CNC(=O)c1c(O)c2c(n(Cc3ccc(C(F)(F)F)cc3)c1=O)CN(C(=O)c1cc3ncccn3n1)C2` [Example 24, N-({4-hydroxy-2-oxo-6-(pyrazolo[1,5-a]pyrimidin-2-ylcarbonyl)-1-[4-(trifluoromethyl)benzyl]-2,5,6,7-tetrahydro-1H-pyrrolo[3,4-b]pyridin-3-yl}carbonyl)glycine], the IC50 was below 10 nM.

Take `O=C(O)CNC(=O)c1c(O)c2c(n(Cc3ccc(C(F)(F)F)cc3)c1=O)CN(C(=O)[C@@H]1CCC(=O)N1)C2` [Example 28, N-({4-hydroxy-2-oxo-6-(5-oxo-L-prolyl)-1-[4-(trifluoromethyl)benzyl]-2,5,6,7-tetrahydro-1H-pyrrolo[3,4-b]pyridin-3-yl}carbonyl)glycine]: the IC50 was below 10 nM. As for `O=C(O)CNC(=O)c1c(O)c2c(n(Cc3ccc(C(F)(F)F)cc3)c1=O)CN(C(=O)c1cocn1)C2` [Example 37, N-({4-hydroxy-6-(1,3-oxazol-4-ylcarbonyl)-2-oxo-1-[4-(trifluoromethyl)benzyl]-2,5,6,7-tetrahydro-1H-pyrrolo[3,4-b]pyridin-3-yl}carbonyl)glycine], the IC50 is below 10 nM. `C=CCCC(=O)N1Cc2c(O)c(C(=O)NCC(=O)O)c(=O)n(Cc3cccc(-c4ccccc4)c3)c2C1` [Example 43, N-{[1-(biphenyl-3-ylmethyl)-4-hydroxy-2-oxo-6-pent-4-enoyl-2,5,6,7-tetrahydro-1H-pyrrolo[3,4-b]pyridin-3-yl]carbonyl}glycine]: the IC50 is below 10 nM.

Take `O=C(O)CNC(=O)c1c(O)c2c(n(Cc3ccc(C(F)(F)F)cc3)c1=O)CN(S(=O)(=O)c1ccccc1)C2` [Example 19, N-({4-hydroxy-2-oxo-6-(phenyl-sulfonyl)-1-[4-(trifluoromethyl)benzyl]-2,5,6,7-tetrahydro-1H-pyrrolo[3,4-b]pyridin-3-yl}carbonyl)glycine]: the IC50 was below 10 nM.

The term IC50 denotes the concentration that inhibits the measured activity by half.
